Here are results for 9 compounds from patent US5374772A, “Substituted benzoic acids, inhibitors of phospholipases A2” (Hoffmann-LaRoche Inc., priority 1993, dated 1994).

Test [1] relates to croton oil-induced mouse ear edema. Briefly: Croton Oil Mouse Ear Edema Test. It is filed as in vivo, male CD-1 mice. Conditions: 1 mg topical, coapplied with croton oil, ear punch weight at 6 hours. As for the experimental part: The croton oil-induced mouse ear edema test, a model of irritant-induced contact dermatitis, has been used for evaluation of the PLA2 inhibitors by the topical route of administration. This test was carried out as described in the following references:
The major active ingredient in croton oil is the tumor promoter 12-O-tetradecanoylphorbol-13-acetate (TPA) and the topical application of TPA to mouse skin has been reported to cause an increase in epidermal PGE2 production as well as an increase in epidermal cell membrane PLA2 activity. Indomethacin, an inhibitor of prostaglandin synthesis, prevented the TPA-mediated increase in epidermal PGE2 levels as well as the TPA-mediated induction of epidermal cell ornithine decarboxylase. Furthermore, the application of PGE2 to mouse skin countered the inhibitory effect of indomethacin upon TPA-stimulated cellular proliferation.
Twenty five μl of a 1% croton oil solution [dissolved in a mixture of pyridine/water/diethyl ether at a ratio of 5/20/75 (croton oil vehicle)] are applied to the outer side of the right ear of 3-4 week old male CD-1 mice (8 animals per group). The test compounds are dissolved directly in the 1% croton oil solution at various concentrations and coapplied. Control animals receive 25 μl of croton oil vehicle on the right ear. Biopsy punches are removed at 6 hours from the fight ear of the animals using a 6 mm skin trephine (Roboz, Washington, D.C.) and the wet weight of the ear punches is determined. The weight of the biopsy punches is a measure of ear inflammation, primarily edema. The data are expressed as percent inhibition relative to control groups.
Statistical analysis of the mean edema values of the control versus the treated groups is performed using Student's t-test. The significance of changes from the mean value for vehicle-treated (control) animals in the following Tables is indicated as follows: *p<0.05, **p<0.01, ***p<0.005,ns/not significant.

Test [2] concerns the target T1, HSF-PLA2 (extracellular PLA2 obtained from human synovial fluid) (Homo sapiens, UniProt P14555).
T1 construct: extracellular enzyme obtained from human synovial fluid; from tissue; host or cells: pooled human synovial fluid (0.1% v/v in the assay)
T1 sequence (P14555 21-144): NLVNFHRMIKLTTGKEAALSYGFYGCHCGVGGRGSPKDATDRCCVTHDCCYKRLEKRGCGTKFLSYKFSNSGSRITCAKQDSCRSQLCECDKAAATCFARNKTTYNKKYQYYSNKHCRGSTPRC
The test is described as follows: Assay for Inhibition of HSF-PLA2 In Vitro. Format: biochemical. Conditions: for IC50: given as 50 % inhibition at the given concentration, 14C-oleate-labelled E. coli substrate, pH 7.3, 37° C., 30 minutes, read-out: % Inhib of HSF-PLA2: 50 (concentration) = IC50 (μM concentration that produces 50% inhibition of PLA2 activity). As for the experimental part: The PLA2 used in this test is the extracellular enzyme obtained from human synovial fluid (HSF-PLA2). The assay for HSF-PLA2 activity was a modification of the described method [Franson R., Dobrow R., Weiss, J., Elsbach P., and […]. Lipid Res., 19, 18-23 (1978)] which was conducted using [1-^14 C]-oleate-labelled E. coli substrate in excess at a final concentration of 20,000 dpm/ml. This was equivalent to 18.2 mM of cell membrane phospholipid phosphorus and 2×10^9 autoclaved E. coli/ml. The optimal conditions which were developed for the assay of HSF-PLA2 inhibitors are summarized as follows. […] The reaction was terminated by the addition of 2.5 ml of chloroform-methanol (1 to 1.5, v/v). The extraction of lipids from the stopped reaction mixture was conducted by the further additions of 0.5 ml of chloroform and 1 ml of water with mixing. […] The extracted lipid residue was redissolved in […] of a solution containing carrier oleic acid (0.2 mg/ml) of […]]). […] This TLC system rapidly (6 minutes) resolved the enzymatically released product, ^14 C-oleic acid, from the unreacted ^14 C-phospholipid substrate. The unsaturated lipids were located on the chromatogram by a brief exposure to iodine vapor. The oleic acid zone (Rf value 0.95) and phospholipid zone (origin) were cut out, chopped into small pieces, shaken with 2 ml of ethanol-water (80 to 20, v/v) and 15 ml of Aquasol and counted for radioactivity. A control incubation of substrate in the absence of HSF-PLA2 was performed in each experiment. The PLA2 activity of the human synovial fluid was corrected for this small control value. […] The specific activity of PLA2 in the pooled human synovial fluid under the optimal assay conditions was 49.2 nmoles [1-^14 C]-oleic acid released hour^-1 mg^-1. The IC50 (μM concentration of test compound that produces 50% inhibition of PLA2 activity) was determined for each test compound.

The test system of test [3] is myeloperoxidase (MPO) activity, indicator of neutrophil infiltration. Briefly: TPA mouse ear test, myeloperoxidase activity in ear punches. Particulars: 0.3 mg topically. It is filed as in vivo, male CD-1 mice. As to the method:
(§1) For this test, 10 μl of 12-O-tetradecanoylphorbol-13-acetate (TPA), dissolved in a vehicle of pyridine: water: diethyl ether (20:5:75), was applied to the outside of the right ear of 3-4 week old male CD-1 mice (8 animals per group). The test compounds were dissolved in the same vehicle and 10 μl was applied to the inside of the same ear 30 minutes prior to the application of TPA. Ear punches (6 mm) were removed at 6 hours after TPA application, weighed and assayed for myeloperoxidase (MPO) activity as described in the following reference: P. P. Bradley, D. A. Priebat, R. D. Christensen and G. Rothstein, J. Invest. Dermatology 78, 206-209 (1982). The wet weight of the ear biopsy punches is a measure of the ear edema and the level of MPO activity in the ear punches is an indicator of neutrophil infiltration. The data are expressed as percent inhibition of drug-treatedanimals relative to the control group.

For test [4], the system named is TPA-induced mouse ear edema. The test is described as follows: TPA Induced Mouse Ear Edema Test (ear punch weight). Format: in vivo, male CD-1 mice. Particulars: Mus musculus; 0.3 mg topical, 30 minutes prior to TPA, ear punch weight at 6 hours; read-out: % Inhib of TPA Mouse Ear Edema (0.3 mg). As for the experimental part:
as §1, with “The TPA-induced mouse ear edema test, a model of irritant-induced contact dermatitis is described in the following reference: J. M. Young, B. M. Wagner and […]. Invest. Dermatology 80, 48-52 (1983). For” for “For”, “[…].” for “D. A. Priebat, R. D.”, “drug-[…]” for “drug-treatedanimals”

Test [5] deals with carrageenan-induced paw edema. Briefly: Rat Carrageenan Paw Edema. Format: in vivo, Lewis rats. Conditions: 30 mg/kg ip, measured at 2 hours after carrageenan injection. As to the method:
Representative compounds of the invention were tested in the rat carrageenan-induced paw edema test to determine their ability to inhibit this acute inflammatory response. Test compounds were administered intraperitoneally or orally to groups of seven Lewis rats (~200 gm) 1 hr prior to carrageenan administration. The test compounds were dissolved in dimethyl sulfoxide for intraperitoneal administration and dissolved or suspended in Labrafil […] for oral administration. At 0 hour, 0.1 mL of 1% carrageenan dissolved in pyrogen free saline was injected subplantarly into the right hind paw to elicit the inflammatory response. The volume (in mL) of the right hind paw was measured by immersion of the paw to the level of the lateral malleolus in an aqueous plethysmometer immediately prior to the injection of carrageenan and then at 1, 2 and 4 hr after carrageenan injection. The paw edema was calculated by subtracting the zero time reading from the readings taken after injection. The percent change of the edema volume from the vehicle treated control was calculated to determine the activity of the test compound. Statistical analysis of the mean paw edema values of the control versus the treated groups was performed using Student's t-test.

`CCCCCCCCCCCCCCCCCCOc1cc(OC(=O)C(c2ccccc2)c2ccccc2)cc(C(=O)O)c1` [Example 11, 3-(Octadecyloxy)-5-(2,2-diphenyl-1-oxoethoxy) benzoic acid]: in test [1], the “% Inhib of Croton Oil Mouse Ear Edema (1 mg)” value (“% Inhib … (1 mg)” for short) is given as 71%. In addition, the IC50 in test [2] came to 0.3 µM.
As to `CCCCCCCCCCCCCCCCCCOc1cc(OC(=O)C23CC4CC(CC(C4)C2)C3)cc(C(=O)O)c1` [Example 13, 3-(Octadecyloxy)-5-[(tricyclo[3.3.1./3,7/]dec-1-ylcarbonyl)oxy]benzoic acid], the “% Inhib … (1 mg)” value in test [1] is reported as 81%. Further, the inhibition at 5 µM in test [2] (5 μM, read-out: % Inhib of HSF-PLA2) was determined as 86%.
Consider `CCCCCCCCCCCCCCCCCCOc1cc(OCCCOc2ccccc2)cc(C(=O)O)c1` [Example 17, 3-(Octadecyloxy)-5-(3-phenoxypropoxy)benzoic acid], for which the “% Inhib … (1 mg)” value in test [1] is given as 81%. The IC50 in test [2] amounted to 1.4 µM.
Consider `CCCCCCCCCCCCCCCCCCOc1cc(OCCCOc2ccc(OCc3ccccc3)cc2)cc(C(=O)O)c1` [Example 30, 3-[[3-(4-Phenylmethoxy)phenoxy]propoxy]-5-(octadecyloxy)benzoic acid], for which the “% Inhib … (1 mg)” value in test [1] stood at 62%.
On to `CCCCCCCCCCCCCCCCCCOc1cc(OCCCOc2ccc(O)cc2)cc(C(=O)O)c1` [Example 31, 3-[3-(4-Hydroxyphenoxy)propoxy]-5-(octadecyloxy) benzoic acid], for which the “% Inhib of myeloperoxidase in the TPA mouse ear test” value (shortened to “% Inhib of myeloperoxidase”) in test [3] was 70%. The “% Inhib … (1 mg)” value in test [1] was 84%. Further, in test [2] (1 μM, read-out: % Inhib of HSF-PLA2), the inhibition at 1 µM was found to be 37%. For the same compound, the inhibition in vivo at 0.3 mg in test [4] is 58%. In addition, the “inhibition of the edema (rat carrageenan paw edema)” value in test [5] was 55%.
Take `CCCCCCCCCCOc1cc(OCCCOc2ccc(O)cc2)cc(C(=O)O)c1` [Example 40, 3-(Decyloxy)-5-[3-(4-hydroxyphenoxy)propoxy]benzoic acid]: in test [3], the “% Inhib of myeloperoxidase” value turned out to be 72%. In test [2], the IC50 is 8.8 µM. The inhibition in vivo at 0.3 mg in test [4] worked out at 58%.
For `CCCCCCCCCCCCCCCCCCOc1cccc(C(=O)O)c1OCCCOc1ccc(O)cc1` [Example 58, 2-[3-(4-Hydroxyphenoxy)propoxy]-3-(octadecyloxy) benzoic acid], the “% Inhib of myeloperoxidase” value in test [3] worked out at 62%. In addition, in test [2] (read-out: % Inhib of HSF-PLA2), the inhibition at 10 µM came to 93%. For the same compound, the inhibition in vivo at 0.3 mg in test [4] came out at 48%.
For `CCCCCCCCCCCCCCOc1cc(OCCCCCCc2cccc(O)c2O)cc(C(=O)O)c1` [Example 63, 3-[[6-(2,3-dihydroxyphenyl)hexyl]oxy]-5-(tetradecyloxy)benzoic acid], the “% Inhib of myeloperoxidase” value in test [3] turned out to be 61%. Further, in test [2] (read-out: % Inhib of HSF-PLA2), the inhibition at 10 µM was 88%. Further, the inhibition in vivo at 0.3 mg in test [4] was found to be 61%.
Consider `CCCCCCCCCCOc1cc(OCCCCCCc2cccc(O)c2O)cc(C(=O)O)c1` [Example 68, 3-(Decyloxy)-5-[[6-(2,3-dihydroxyphenyl)hexyl]oxy]benzoic acid], for which the “% Inhib of myeloperoxidase” value in test [3] was 89%. Besides, the inhibition at 20 µM in test [2] (20 μM, read-out: % Inhib of HSF-PLA2) amounted to 74%. Besides, the inhibition in vivo at 0.3 mg in test [4] is 58%.
